The source of these data is patent US20220017478A1, “2-BENZOYLAMINOBENZAMIDE DERIVATIVES AS BCL-3 INHIBITORS” (University College Cardiff Consultants Limited, priority 2013, published 2022).

Series [1] is described as follows: Cell Titre Blue viability assay, HEK-293. In kind it is cell-based. Conditions: human, HEK-293 cells, HEK-293, 10 μM, vs DMSO. From the text:
In all assays, a DMSO control was always used.

The nature of series [2]: Cell Titre Blue viability assay, MDA-MB-231. Conditions: human, MDA-MB-231 cells.
Procedure: The viability of cells at experimental endpoints for particular assays was determined using the Cell Titre Blue reagent (Promega, Southampton, UK). This reagent measures the cellular metabolic activity using resazurin as an indicator dye. Viable cells, therefore metabolically active, will reduce resazurin into highly fluorescent resofurin. The resulting fluorescence levels are measured and indicate cell viability.
Cells were plated at low confluency into 96 well plates in 100 μl of complete growth media in triplicates and were incubated at 37° C. in 5% CO2 for the desired test exposure period. For each 100 μl of media in 96 well plates, 20 μl Cell Titre Blue reagent was added followed by incubation for an hour at 37° C. in 5% CO2. Fluorescence was then measured by setting excitation/emission wavelengths to 560/590 nm on a Flurostar Optima plate reader (BMG tabtech, Bucks, UK).
Cell toxicity was evaluated using the Cell Titre Blue viability assay over a range of molarities for 24 hrs.
Selected compounds were dissolved in DMSO and diluted to a highest concentration of 10 μM (0.1% DMSO). In all assays, a DMSO control was always used. Selected compounds were tested for cell toxicity in HEK-293 and MDA-MB-231 cells before being used in cell-based assays. Cell toxicity was evaluated using the Cell Titre Blue viability assay over a range of molarities for 24 hrs
The next series has as its system MDA-MB-231 cells. Conditions: 10 µM.
The next series relates to NF-κB activity. Description: NF-κB luciferase reporter assay in MDA-MB-231 cells overexpressing Bcl-3. Type of series: cell-based, human. Conditions: for pIC50: MDA-MB-231 overexpressing Bcl-3, 24 hrs then reporter 48 hrs, read-out: IC50 NF-κB activity. The method, then: For NF-κB luciferase assays, cells were seeded into clear bottom black 96-well plates (Corning Inc., Lowell, US) in antibiotic free culture media in appropriate density. After 24 hrs, cells were transfected with 10 ng of 3×κB luciferase plasmid and 10 ng of pcDNA3.1-Lacl plasmid per well. Empty pcDNA3.1 plasmid was also included to normalize the total weight of DNA transfected to 100 ng. For positive and negative controls respectively, 10 ng of pGL3control or pGL3basic were transfected in place of 3×KB luciferase plasmid. Transfection was carried out using Lipofectamine LTX reagents (Invitrogen, Paisley, UK).
After 48 hrs post-transfection with luciferase reporter plasmid, the media was aspirated and cells were lyzed using 50 μl/well of Glo-lysis buffer (Promega, Southampton, UK). The plate was left on a rocker for 20 min to facilitate complete cell lysis. Then, 20 μl of lysate from each well was removed and transferred into a new clear bottom black well plate for measuring LacZ activity as a transfection efficiency control and followed by addition of 20 ul/well of Beta-Glo substrate (Promega, Southampton, UK) and cultivation at room temperature for at least 20 min. Subsequently, 30 μl/well of Bright-Glo luciferase substrate (Promega, Southampton, UK) was added to the original plate and asses immediately for luminescence activity. The luminescence produced from either reaction was read using a Flurostar Optima plate reader (BMG tabtech, Bucks, UK).
The effect of Compound 1a on NF-κB activity was determined by NF-κB luciferase assay in MDA-MB-231 and HEK-293 cells overexpressing Bcl-3 and HEK-293 cells overexpressing p52. Cells were cultivated with Compound 1a over a range of molarities for 24 hrs before being transfected with NF-κB luciferase reporter plasmid for 48 hrs and analyzed for NF-κB activity.
The effect of selected analogues on NF-κB activity was determined by NF-KB luciferase assay in MDA-MB-231 cells. MDA-MB-231 Bcl-3 over-expressing cells were cultivated with compounds from series 1-3 at 1 μM concentration for 24 hrs before being transfected with NF-κB luciferase reporter plasmid for 48 hrs together with controls and analyzed for NF-κB activity.
Based on the results for the series of analogues, we have established dose response curve for selected analogues from series 1 (If), from series 2 (2a and 2c) and from series 3 (3a) over a range of molarities. MDA-MB-231 Bcl-3 WT cells were cultivated with selected compounds from series 1-3 over a range of molarities for 24 hrs before being transfected with NF-κB luciferase reporter plasmid for 48 hrs together with controls and analyzed for NF-κB activity (FIG. 7).

Structures are written as SMILES. pIC50: −log10 of the molar value. Bounds are passed on as bounds.

`COc1cccc(C(=O)Nc2ccccc2C(=O)NCCN2CCOCC2)c1` [Compound 1e, 2-[(3-methoxybenzoyl)amino]-N-(2-morpholin-4-ylethyl)benzamide]: the viability at 24 h, 10 µM in series [1] and in series [2] was more than 70% in each case.
For the compound `O=C(Nc1ccccc1C(=O)NCCN1CCOCC1)c1ccc([N+](=O)[O-])cc1` [Compound 1i, 2-[(4-nitrobenzoyl)amino]-N-(2-morpholin-4-ylethyl) benzamide], the cell viability entry with MDA-MB-231 cells was “above 70%”.
With `O=C(NCCN1CCOCC1)c1ccccc1NC(=O)c1ccccc1[N+](=O)[O-]` [Compound 1g, 2-[(2-nitrobenzoyl)amino]-N-(2-morpholin-4-ylethyl)benzamide], the viability at 24 h, 10 µM in series [1] and in series [2] was more than 70% each time.
For the compound `O=C(NCCN1CCOCC1)c1ccccc1NC(=O)c1c(F)cccc1F` [Compound 1p, 2,6-difluoro-N-(2-[(2-morpholin-4-ylethyl)carbamoyl]phenyl) benzamide], in the series with NF-κB activity, the pIC50 is 6.15.
Regarding `O=C(Nc1ccc(I)cc1C(=O)NCCN1CCOCC1)c1ccccc1F` [Compound 3c, 2-[(2-fluorobenzoyl)amino]-5-iodo-N-(2-morpholin-4-ylethyl)benzamide], the “effect on NF-κB activity” value in the series with NF-κB activity (1 μM, 24 hrs, MDA-MB-231 Bcl-3 over-expressing cells, vs DMSO control / Compound 1a) was “significant decrease in NF-κB activity”.
With `O=C(Nc1ccccc1C(=O)NCCN1CCOCC1)c1ccc(F)cc1F` [Compound 1q, 2,4-difluoro-N-(2-[(2-morpholin-4-ylethyl)carbamoyl]phenyl) benzamide], in the series on NF-κB activity, the pIC50 is 6.00.
As to `O=C(Nc1ccccc1C(=O)NCCN1CCOCC1)c1ccc(F)cc1` [Compound 1c, 2-[(4-fluorobenzoyl)amino]-N-(2-morpholin-4-ylethyl)benzamide], the viability at 24 h, 10 µM in series [1] and in series [2] was more than 70% each time.
Take `O=C(Nc1ccccc1C(=O)NCCN1CCOCC1)c1cc(F)cc(F)c1` [Compound 1o, 3,5-difluoro-N-(2-[(2-morpholin-4-ylethyl)carbamoyl]phenyl) benzamide]: in the series on NF-κB activity, the pIC50 is 6.62.
